Source: US8796245B2 (TetraPhase Pharmaceuticals, Inc., priority 2008, dated 2014)
Values after ≈ are worked out from the molar mass of the structure shown.

Columns and labels:
Type in all cases: cell-based
[1] = test system: E. faecalis EF159 (tet resistant: tetM); experiment: Minimum inhibitory concentration assay, EF159; settings: Enterococcus faecalis, read-out: MICs EF159
Protocol: (§1) Frozen bacterial strains were thawed and subcultured onto Mueller Hinton Broth (MHB) or other appropriate media (Streptococcus requires blood and Haemophilus requires hemin and NAD). Following incubation overnight, the strains were subcultured onto Mueller Hinton Agar and again incubated overnight. […] Isolated colonies were selected to prepare a starting inoculum equivalent to a 0.5 McFarland standard. The starting inoculum was diluted 1:125 using MHB for further use. Test compounds were prepared by dilution in sterile water to a final concentration of 5.128 mg/mL. Antibiotics (stored frozen, thawed and used within 3 hours of thawing) and compounds were further diluted to the desired working concentrations.
(§2) The assays were run as follows. Fifty μL of MHB was added to wells 2-12 of a 96-well plate. One hundred […] of appropriately diluted antibiotics was added to well 1. Fifty μL of antibiotics was removed from well 1 and added to well 2 and the contents of well 2 mixed by pipetting up and down five times. Fifty μL of the mixture in well 2 was removed and added to well 3 and mixed as above. Serial dilutions were continued in the same manner through well 12. Fifty μL was removed from well 12 so that all contained 50 μL. Fifty μL of the working inoculum was then added to all test wells. A growth control well was prepared by adding 50 μL of working inoculum and 50 μL of MHB to an empty well. The plates were then incubated at 37° C. overnight, removed from the incubator and each well was read on a plate reading mirror. The lowest concentration (MIC) of test compound that inhibited the growth of the bacteria was recorded.

[2] = test system: K. pneumoniae ATCC 13883 (KP109); experiment: Minimum inhibitory concentration assay, KP109; settings: Klebsiella pneumoniae, ATCC13883; K. pneumoniae ATCC 13883, wt; read-out: MICs KP109
Protocol: as §1, §2

[3] = test system: K. pneumoniae KP153 (tet resistant: tetA efflux); experiment: microbe, parasite or virus in culture; settings: Klebsiella pneumoniae, read-out: MICs KP153
Protocol: as §1, §2

[4] = test system: E. coli EC155 (tet resistant: tetA efflux); experiment: microbe, parasite or virus in culture; settings: Escherichia coli; E. coli tet resistant: tetA (efflux); read-out: MICs EC155
Protocol: as §1, §2

[5] = test system: S. aureus SA158 (tet resistant: tetK efflux); experiment: microbe, parasite or virus in culture; settings: Staphylococcus aureus, read-out: MICs SA158
Protocol: as §1, §2

[6] = test system: E. faecalis ATCC 29212 (EF103); experiment: Minimum inhibitory concentration assay, EF103; settings: Enterococcus faecalis, ATCC29212, read-out: MICs EF103
Protocol: as §1, §2

[7] = test system: S. pneumoniae SP160 (tet resistant: tet M); experiment: Minimum inhibitory concentration assay, SP160; settings: Streptococcus pneumoniae, read-out: MICs SP160
Protocol: as §1, §2

[8] = test system: A. baumanii ATCC 19606 (AB110); experiment: Minimum inhibitory concentration assay, AB110; settings: Acinetobacter baumannii, ATCC19606; A. baumanii ATCC 19606, wt; read-out: MICs AB110
Protocol: as §1, §2

[9] = test system: S. aureus ATCC 29213 (SA101, MSSA); experiment: Minimum inhibitory concentration assay, SA101; settings: Staphylococcus aureus; S. aureus ATCC 29213, MSSA control; read-out: MICs SA101
Protocol: as §1, §2

[10] = test system: S. aureus ATCC 13709 (SA100, MSSA, Smith strain); experiment: Minimum inhibitory concentration assay, SA100; settings: Staphylococcus aureus; S. aureus ATCC 13709, MSSA Smith strain; read-out: MICs SA100
Protocol: as §1, §2

[11] = test system: E. coli ATCC 25922 (EC107); experiment: Minimum inhibitory concentration assay, EC107; settings: Escherichia coli, ATCC25922; E. coli ATCC 25922, wt; read-out: MICs EC107
Protocol: as §1, §2

[12] = test system: S. pneumoniae ATCC 49619 (SP106); experiment: Minimum inhibitory concentration assay, SP106; settings: Streptococcus pneumoniae, ATCC49619; S. pneumoniae ATCC 49619, wt; read-out: MICs SP106
Protocol: as §1, §2

[13] = test system: P. aeruginosa ATCC 27853 (PA111); experiment: Minimum inhibitory concentration assay, PA111; settings: Pseudomonas aeruginosa, ATCC27853; P. aeruginosa ATCC 27853, wt; read-out: MICs PA111
Protocol: as §1, §2

[14] = test system: S. aureus SA161 (tet resistant: tet(M) ribosomal protection); experiment: Minimum inhibitory concentration assay, SA161; settings: Staphylococcus aureus, read-out: MICs SA161
Protocol: as §1, §2

[15] = test system: E. cloacae ATCC 13047 (EC108); experiment: Minimum inhibitory concentration assay, EC108; settings: Enterobacter cloacae, ATCC13047; E. cloacae ATCC 13047, wt; read-out: MICs EC108
Protocol: as §1, §2

Row | Compound | MIC [1] [µg/mL] | MIC [2] [µg/mL] | MIC [3] [µg/mL] | MIC [4] [µg/mL] | MIC [5] [µg/mL] | MIC [6] [µg/mL] | MIC [7] [µg/mL] | MIC [8] [µg/mL] | MIC [9] [µg/mL] | MIC [10] [µg/mL] | MIC [11] [µg/mL] | MIC [12] [µg/mL] | MIC [13] [µg/mL] | MIC [14] [µg/mL] | MIC [15] [µg/mL]
1 | CN(C)[C@@H]1C(O)=C(C(N)=O)C(=O)[C@@]2(O)C(O)=C3C(=O)c4c(O)c(NC(=O)CNCC5CC5)cc(F)c4C[C@H]3C[C@@H]12 [Compound 20] | 0.0625 (≈ 0.112 µM) | 1 (≈ 1.79 µM) | 4 (≈ 7.16 µM) | 8 (≈ 14.3 µM) | 0.5 (≈ 0.895 µM) | ≤ 0.0156 | ≤ 0.0156 | 1 (≈ 1.79 µM) | ≤ 0.0156 | 0.25 (≈ 0.448 µM) | 0.25 (≈ 0.448 µM) | ≤ 0.0156 | 8 (≈ 14.3 µM) | 0.25 (≈ 0.448 µM) | 1 (≈ 1.79 µM)
2 | CCCNCC(=O)Nc1cc(F)c2c(c1O)C(=O)C1=C(O)[C@]3(O)C(=O)C(C(N)=O)=C(O)[C@@H](N(C)C)[C@@H]3C[C@@H]1C2 [Compound 12] | 0.0625 (≈ 0.114 µM) | 1 (≈ 1.83 µM) | 4 (≈ 7.32 µM) | 8 (≈ 14.6 µM) | 0.5 (≈ 0.915 µM) | ≤ 0.0156 | ≤ 0.0156 | 1 (≈ 1.83 µM) | ≤ 0.0156 | ≤ 0.0156 | 0.25 (≈ 0.457 µM) | ≤ 0.0156 | 16 (≈ 29.3 µM) | 0.125 (≈ 0.229 µM) | 1 (≈ 1.83 µM)
3 | CN(C)[C@@H]1C(O)=C(C(N)=O)C(=O)[C@@]2(O)C(O)=C3C(=O)c4c(O)c(NC(=O)CNC5CC5)cc(F)c4C[C@H]3C[C@@H]12 [Compound 17] | 1 (≈ 1.84 µM) | 4 (≈ 7.35 µM) | 32 (≈ 58.8 µM) | 32 (≈ 58.8 µM) | 2 (≈ 3.67 µM) | 0.25 (≈ 0.459 µM) | 0.0625 (≈ 0.115 µM) | 0.5 (≈ 0.918 µM) | 0.25 (≈ 0.459 µM) | 0.5 (≈ 0.918 µM) | 2 (≈ 3.67 µM) | 0.0625 (≈ 0.115 µM) | 32 (≈ 58.8 µM) | 1 (≈ 1.84 µM) | 8 (≈ 14.7 µM)
4 | CN(C)[C@@H]1C(O)=C(C(N)=O)C(=O)[C@@]2(O)C(O)=C3C(=O)c4c(O)c(NC(=O)CN5CC[C@H](O)C5)cc(F)c4C[C@H]3C[C@@H]12 [Compound 40] | 1 (≈ 1.74 µM) | 8 (≈ 13.9 µM) | 32 (≈ 55.7 µM) | > 32 | 16 (≈ 27.8 µM) | 1 (≈ 1.74 µM) | 0.5 (≈ 0.87 µM) | 8 (≈ 13.9 µM) | 1 (≈ 1.74 µM) | 1 (≈ 1.74 µM) | 4 (≈ 6.96 µM) | 0.0625 (≈ 0.109 µM) | 32 (≈ 55.7 µM) | 1 (≈ 1.74 µM) | 4 (≈ 6.96 µM)
5 | CN(C)[C@@H]1C(O)=C(C(N)=O)C(=O)[C@@]2(O)C(O)=C3C(=O)c4c(O)c(NC(=O)CN5CC6CCCC6C5)cc(F)c4C[C@H]3C[C@@H]12 (stereo partly drawn) [Compound 45] | 0.5 (≈ 0.835 µM) | 2 (≈ 3.34 µM) | 4 (≈ 6.68 µM) | 2 (≈ 3.34 µM) | 0.5 (≈ 0.835 µM) | 0.25 (≈ 0.418 µM) | 0.06 (≈ 0.1 µM) | 0.06 (≈ 0.1 µM) | 0.5 (≈ 0.835 µM) | 0.5 (≈ 0.835 µM) | 1 (≈ 1.67 µM) | 0.125 (≈ 0.209 µM) | > 32 | 1 (≈ 1.67 µM) | 4 (≈ 6.68 µM)
6 | CN(C)[C@H]1CCN(CC(=O)Nc2cc(F)c3c(c2O)C(=O)C2=C(O)[C@]4(O)C(=O)C(C(N)=O)=C(O)[C@@H](N(C)C)[C@@H]4C[C@@H]2C3)C1 [Compound 38] | 16 (≈ 26.6 µM) | > 32 | > 32 | > 32 | 32 (≈ 53.2 µM) | 8 (≈ 13.3 µM) | 8 (≈ 13.3 µM) | > 32 | 8 (≈ 13.3 µM) | 8 (≈ 13.3 µM) | > 32 | 2 (≈ 3.32 µM) | > 32 | 16 (≈ 26.6 µM) | > 32
